Source: patent US4464385A, “Treatment of diabetic complications with hydantoins” (Alcon Laboratories, Inc., priority 1982, dated 1984)

System: cataracts in rats
Assay: Prevention or retardation of cataracts in galactose-fed rats
Type: in vivo, rat
Settings: 30% galactose diet, A,C,E 0.0025%, B,D 0.01%
Description: The compounds to be tested were:
Test compound/diet mixtures were formulated as follows: […]
Similarly, the 0.01% level was designed to provide a drug concentration of 20 mg per kilogram per day.
All animals were fed the Purina Laboratory Chow and water, ad libitum for a two day acclimatization period. The indicated test compound/diet mixture then was introduced to all animals on Study Day 1 and the animals were maintained on this diet throughout thirty days of the study.
Sufficient amounts of test compound/diet mixture were maintained in the food hoppers to allow the animals to eat ad libitum. All aliquots of test compound/diet mixture added to the food hoopers were weighed and the weights, as well as day of addition, recorded.
Twelve animals were assigned to each treatment with each compound at the indicated percentage by total weight of feed. All eyes were examined with a handheld ophthalmoscope and/or penlight.

Structure (SMILES): CSc1ccc2c(c1)C1(CCO2)NC(=O)NC1=O (stereo not drawn) [A]
- % of Total Eyes, + (vacuole) (Study Day 2): 0%
- % of Total Eyes, - (Normal) (Study Day 2): 100.0%
- % of Total Eyes, N (nuclear cataract) (Study Day 2): 0%
- % of Total Eyes, S (snowflake) (Study Day 2): 0%
- Number of Eyes Observed, + (vacuole) (Study Day 2): 0 eyes
- Number of Eyes Observed, - (Normal) (Study Day 2): 24 eyes
- Number of Eyes Observed, N (nuclear cataract) (Study Day 2): 0 eyes
- Number of Eyes Observed, S (snowflake) (Study Day 2): 0 eyes
- Number of Eyes Observed, ± (Study Day 2): 0 eyes
- % of Total Eyes, + (vacuole) (Study Day 3): 0%
- % of Total Eyes, - (Normal) (Study Day 3): 100.0%
- % of Total Eyes, N (nuclear cataract) (Study Day 3): 0%
- % of Total Eyes, S (snowflake) (Study Day 3): 0%
- Number of Eyes Observed, + (vacuole) (Study Day 3): 0 eyes
- Number of Eyes Observed, - (Normal) (Study Day 3): 24 eyes
- Number of Eyes Observed, N (nuclear cataract) (Study Day 3): 0 eyes
- Number of Eyes Observed, S (snowflake) (Study Day 3): 0 eyes
- Number of Eyes Observed, ± (Study Day 3): 0 eyes
- % of Total Eyes, + (vacuole) (Study Day 4): 0%
- % of Total Eyes, - (Normal) (Study Day 4): 79.2%
- % of Total Eyes, N (nuclear cataract) (Study Day 4): 0%
- % of Total Eyes, S (snowflake) (Study Day 4): 0%
- Number of Eyes Observed, + (vacuole) (Study Day 4): 0 eyes
- Number of Eyes Observed, - (Normal) (Study Day 4): 19 eyes
- Number of Eyes Observed, N (nuclear cataract) (Study Day 4): 0 eyes
- Number of Eyes Observed, S (snowflake) (Study Day 4): 0 eyes
- Number of Eyes Observed, ± (Study Day 4): 5 eyes
- % of Total Eyes, + (vacuole) (Study Day 5): 16.7%
- % of Total Eyes, - (Normal) (Study Day 5): 8.3%
- % of Total Eyes, N (nuclear cataract) (Study Day 5): 0%
- % of Total Eyes, S (snowflake) (Study Day 5): 0%
- Number of Eyes Observed, + (vacuole) (Study Day 5): 4 eyes
- Number of Eyes Observed, - (Normal) (Study Day 5): 2 eyes
- Number of Eyes Observed, N (nuclear cataract) (Study Day 5): 0 eyes
- Number of Eyes Observed, S (snowflake) (Study Day 5): 0 eyes
- Number of Eyes Observed, ± (Study Day 5): 18 eyes
- % of Total Eyes, + (vacuole) (Study Day 6): 58.4%
- % of Total Eyes, - (Normal) (Study Day 6): 8.3%
- % of Total Eyes, N (nuclear cataract) (Study Day 6): 0%
- % of Total Eyes, S (snowflake) (Study Day 6): 0%
- Number of Eyes Observed, + (vacuole) (Study Day 6): 14 eyes
- Number of Eyes Observed, - (Normal) (Study Day 6): 2 eyes
- Number of Eyes Observed, N (nuclear cataract) (Study Day 6): 0 eyes
- Number of Eyes Observed, S (snowflake) (Study Day 6): 0 eyes
- Number of Eyes Observed, ± (Study Day 6): 8 eyes
- % of Total Eyes, + (vacuole) (Study Day 8): 66.7%
- % of Total Eyes, - (Normal) (Study Day 8): 8.3%
- % of Total Eyes, N (nuclear cataract) (Study Day 8): 0%
- % of Total Eyes, S (snowflake) (Study Day 8): 0%
- Number of Eyes Observed, + (vacuole) (Study Day 8): 16 eyes
- Number of Eyes Observed, - (Normal) (Study Day 8): 2 eyes
- Number of Eyes Observed, N (nuclear cataract) (Study Day 8): 0 eyes
- Number of Eyes Observed, S (snowflake) (Study Day 8): 0 eyes
- Number of Eyes Observed, ± (Study Day 8): 6 eyes
- % of Total Eyes, + (vacuole) (Study Day 10): 62.5%
- % of Total Eyes, - (Normal) (Study Day 10): 8.3%
- % of Total Eyes, N (nuclear cataract) (Study Day 10): 0%
- % of Total Eyes, S (snowflake) (Study Day 10): 12.5%
- Number of Eyes Observed, + (vacuole) (Study Day 10): 15 eyes
- Number of Eyes Observed, - (Normal) (Study Day 10): 2 eyes
- Number of Eyes Observed, N (nuclear cataract) (Study Day 10): 0 eyes
- Number of Eyes Observed, S (snowflake) (Study Day 10): 3 eyes
- Number of Eyes Observed, ± (Study Day 10): 4 eyes
- % of Total Eyes, + (vacuole) (Study Day 12): 70.8%
- % of Total Eyes, - (Normal) (Study Day 12): 0%
- % of Total Eyes, N (nuclear cataract) (Study Day 12): 0%
- % of Total Eyes, S (snowflake) (Study Day 12): 16.7%
- Number of Eyes Observed, + (vacuole) (Study Day 12): 17 eyes
- Number of Eyes Observed, - (Normal) (Study Day 12): 0 eyes
- Number of Eyes Observed, N (nuclear cataract) (Study Day 12): 0 eyes
- Number of Eyes Observed, S (snowflake) (Study Day 12): 4 eyes
- Number of Eyes Observed, ± (Study Day 12): 3 eyes
- % of Total Eyes, + (vacuole) (Study Day 14): 66.7%
- % of Total Eyes, - (Normal) (Study Day 14): 0%
- % of Total Eyes, N (nuclear cataract) (Study Day 14): 0%
- % of Total Eyes, S (snowflake) (Study Day 14): 29.2%
- Number of Eyes Observed, + (vacuole) (Study Day 14): 16 eyes
- Number of Eyes Observed, - (Normal) (Study Day 14): 0 eyes
- Number of Eyes Observed, N (nuclear cataract) (Study Day 14): 0 eyes
- Number of Eyes Observed, S (snowflake) (Study Day 14): 7 eyes
- Number of Eyes Observed, ± (Study Day 14): 1 eyes
- % of Total Eyes, + (vacuole) (Study Day 16): 50.0%
- % of Total Eyes, - (Normal) (Study Day 16): 0%
- % of Total Eyes, N (nuclear cataract) (Study Day 16): 0%
- % of Total Eyes, S (snowflake) (Study Day 16): 50.0%
- Number of Eyes Observed, + (vacuole) (Study Day 16): 12 eyes
- Number of Eyes Observed, - (Normal) (Study Day 16): 0 eyes
- Number of Eyes Observed, N (nuclear cataract) (Study Day 16): 0 eyes
- Number of Eyes Observed, S (snowflake) (Study Day 16): 12 eyes
- Number of Eyes Observed, ± (Study Day 16): 0 eyes
- % of Total Eyes, + (vacuole) (Study Day 18): 33.3%
- % of Total Eyes, - (Normal) (Study Day 18): 0%
- % of Total Eyes, N (nuclear cataract) (Study Day 18): 0%
- % of Total Eyes, S (snowflake) (Study Day 18): 66.7%
- Number of Eyes Observed, + (vacuole) (Study Day 18): 8 eyes
- Number of Eyes Observed, - (Normal) (Study Day 18): 0 eyes
- Number of Eyes Observed, N (nuclear cataract) (Study Day 18): 0 eyes
- Number of Eyes Observed, S (snowflake) (Study Day 18): 16 eyes
- Number of Eyes Observed, ± (Study Day 18): 0 eyes
- % of Total Eyes, + (vacuole) (Study Day 20): 25.0%
- % of Total Eyes, - (Normal) (Study Day 20): 0%
- % of Total Eyes, N (nuclear cataract) (Study Day 20): 0%
- % of Total Eyes, S (snowflake) (Study Day 20): 75.0%
- Number of Eyes Observed, + (vacuole) (Study Day 20): 6 eyes
- Number of Eyes Observed, - (Normal) (Study Day 20): 0 eyes
- Number of Eyes Observed, N (nuclear cataract) (Study Day 20): 0 eyes
- Number of Eyes Observed, S (snowflake) (Study Day 20): 18 eyes
- Number of Eyes Observed, ± (Study Day 20): 0 eyes
- % of Total Eyes, + (vacuole) (Study Day 22): 25.0%
- % of Total Eyes, - (Normal) (Study Day 22): 0%
- % of Total Eyes, N (nuclear cataract) (Study Day 22): 0%
- % of Total Eyes, S (snowflake) (Study Day 22): 75.0%
- Number of Eyes Observed, + (vacuole) (Study Day 22): 6 eyes
- Number of Eyes Observed, - (Normal) (Study Day 22): 0 eyes
- Number of Eyes Observed, N (nuclear cataract) (Study Day 22): 0 eyes
- Number of Eyes Observed, S (snowflake) (Study Day 22): 18 eyes
- Number of Eyes Observed, ± (Study Day 22): 0 eyes
- % of Total Eyes, + (vacuole) (Study Day 24): 16.7%
- % of Total Eyes, - (Normal) (Study Day 24): 0%
- % of Total Eyes, N (nuclear cataract) (Study Day 24): 0%
- % of Total Eyes, S (snowflake) (Study Day 24): 83.3%
- Number of Eyes Observed, + (vacuole) (Study Day 24): 4 eyes
- Number of Eyes Observed, - (Normal) (Study Day 24): 0 eyes
- Number of Eyes Observed, N (nuclear cataract) (Study Day 24): 0 eyes
- Number of Eyes Observed, S (snowflake) (Study Day 24): 20 eyes
- Number of Eyes Observed, ± (Study Day 24): 0 eyes
- % of Total Eyes, + (vacuole) (Study Day 26): 8.3%
- % of Total Eyes, - (Normal) (Study Day 26): 0%
- % of Total Eyes, N (nuclear cataract) (Study Day 26): 0%
- % of Total Eyes, S (snowflake) (Study Day 26): 91.7%
- Number of Eyes Observed, + (vacuole) (Study Day 26): 2 eyes
- Number of Eyes Observed, - (Normal) (Study Day 26): 0 eyes
- Number of Eyes Observed, N (nuclear cataract) (Study Day 26): 0 eyes
- Number of Eyes Observed, S (snowflake) (Study Day 26): 22 eyes
- Number of Eyes Observed, ± (Study Day 26): 0 eyes
- % of Total Eyes, + (vacuole) (Study Day 28): 8.3%
- % of Total Eyes, - (Normal) (Study Day 28): 0%
- % of Total Eyes, N (nuclear cataract) (Study Day 28): 8.3%
- % of Total Eyes, S (snowflake) (Study Day 28): 83.3%
- Number of Eyes Observed, + (vacuole) (Study Day 28): 2 eyes
- Number of Eyes Observed, - (Normal) (Study Day 28): 0 eyes
- Number of Eyes Observed, N (nuclear cataract) (Study Day 28): 2 eyes
- Number of Eyes Observed, S (snowflake) (Study Day 28): 20 eyes
- Number of Eyes Observed, ± (Study Day 28): 0 eyes
- % of Total Eyes, + (vacuole) (Study Day 30): 4.2%
- % of Total Eyes, - (Normal) (Study Day 30): 0%
- % of Total Eyes, N (nuclear cataract) (Study Day 30): 12.5%
- % of Total Eyes, S (snowflake) (Study Day 30): 83.3%
- Number of Eyes Observed, + (vacuole) (Study Day 30): 1 eyes
- Number of Eyes Observed, - (Normal) (Study Day 30): 0 eyes
- Number of Eyes Observed, N (nuclear cataract) (Study Day 30): 3 eyes
- Number of Eyes Observed, S (snowflake) (Study Day 30): 20 eyes
- Number of Eyes Observed, ± (Study Day 30): 0 eyes
